{
  "source": "paper PMC4764579",
  "about": "“Structural insights into the mechanism of activation of the TRPV1 channel by a membrane-bound tarantula toxin” (eLife, 2016)",
  "key": {"[1]": {"molecular_target": "rat TRPV1, full-length channel expressed in HEK293 cells (rat) (UniProt O35433)", "sequence (O35433 whole entry)": "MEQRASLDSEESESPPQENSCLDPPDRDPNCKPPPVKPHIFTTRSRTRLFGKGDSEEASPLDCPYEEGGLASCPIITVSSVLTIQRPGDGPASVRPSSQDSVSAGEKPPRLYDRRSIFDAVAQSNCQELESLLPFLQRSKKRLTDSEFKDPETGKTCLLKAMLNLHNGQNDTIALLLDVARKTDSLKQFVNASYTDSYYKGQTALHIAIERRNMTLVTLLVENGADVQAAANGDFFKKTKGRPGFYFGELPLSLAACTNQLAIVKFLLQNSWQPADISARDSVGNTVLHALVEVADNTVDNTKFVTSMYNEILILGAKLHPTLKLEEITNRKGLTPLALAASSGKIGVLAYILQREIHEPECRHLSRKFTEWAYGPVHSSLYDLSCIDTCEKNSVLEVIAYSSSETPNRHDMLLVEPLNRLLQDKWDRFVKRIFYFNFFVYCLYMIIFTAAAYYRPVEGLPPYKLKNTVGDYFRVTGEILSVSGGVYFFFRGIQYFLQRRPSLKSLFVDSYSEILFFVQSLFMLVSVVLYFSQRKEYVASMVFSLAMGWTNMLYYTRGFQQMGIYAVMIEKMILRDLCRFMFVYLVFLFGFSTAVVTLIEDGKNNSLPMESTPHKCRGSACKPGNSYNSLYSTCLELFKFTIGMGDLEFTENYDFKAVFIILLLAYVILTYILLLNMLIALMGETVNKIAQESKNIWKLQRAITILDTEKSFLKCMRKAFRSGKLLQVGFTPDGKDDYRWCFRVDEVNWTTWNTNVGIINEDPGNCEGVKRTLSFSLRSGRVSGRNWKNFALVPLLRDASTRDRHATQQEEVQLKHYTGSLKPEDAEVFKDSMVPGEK"}},
  "data": [
    {"substance": "double-knot toxin", "values": [
      {"measurement": "Trp emission maximum in aqueous solution", "result": 353, "unit": "nm"}
    ]},
    {"substance": "double-knot toxin (DkTx), full-length toxin produced recombinantly (natural protein)", "values": [
      {"measurement": "fractional dissociation 1 min after toxin removal (current 1 min after removal divided by steady-state current with toxin), whole-cell patch clamp at +120 mV, TRPV1 in HEK cells", "setting": "[1]", "result": 0.8}
    ]}
  ]
}
